The record followed here is PubChem BioAssay (NCI).

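Briefly, cells in 96-well plates were exposed to five compound concentrations for 48 h, and endpoints were estimated by linear interpolation. Abbreviation: GI50, concentration required for 50% inhibition of growth. The concentration for full growth arrest is given as TGI.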

What all share (test): growth of human tumour cells (NCI), 48 h
In test [1] the test system is SK-OV-3 ovarian.
Test [2] deals with SK-MEL-2 melanoma.
For test [3], the system named is HT29 colon.
The test system of test [4] is UACC-62 melanoma.
For test [5], the system named is DU-145 prostate.
Test [6] has as its system HCT-15 colon.
Test [7] deals with RPMI-8226 leukemia.
The subject of test [8] is OVCAR-3 ovarian.
Test [9] deals with NCI-H23 lung.
Test [10] deals with RXF 393 renal.

As to `COc1cc2c(cc1OCCCCCOc1cc3c(cc1OC)C(=O)N1CC(F)C[C@H]1C=N3)N=C[C@@H]1CC(F)CN1C2=O` (stereo partly drawn), the GI50 in test [1] is 0.327 µM; in test [2] it was 0.279 µM; in test [3] it was 0.246 µM; in [4], 0.0511 µM; in test [5] it was 0.097 µM; in [6], 1.11 µM. Further, the GI50 in test [7] is less than 0.0151 µM; in test [8], 0.128 µM; in test [9] it was less than 0.0373 µM. Further, the TGI is 46.5 µM in [1]; greater than 58.6 µM in test [3]; 0.224 µM in test [4]; 2.67 µM in [5]; 3.72 µM in [6]; 0.0622 µM in test [7]. Also, the TGI is 0.51 µM in test [8] and 0.394 µM in test [9].
With `COC(c1cccc(C(O)(C(F)(F)F)C(F)(F)F)c1)(C(F)(F)F)C(F)(F)F`, the TGI amounted to 34.4 µM in test [1]; 33.7 µM in [2]; 31.6 µM in [3]; 28.2 µM in test [4]; 35.9 µM in test [10]; 53.9 µM in test [6]. The TGI worked out at 38 µM in test [8] and 35.3 µM in test [9].
With `COc1cc(-c2nc3sccn3c2-c2ccnc(NCCNS(=O)(=O)c3ccc(Cl)cc3)n2)ccc1F`, the GI50 is 6.82 µM in [1]; 3.46 µM in test [2]; 4.28 µM in test [3]; 1.39 µM in test [4]; 1.64 µM in [10]; 3.62 µM in test [5]. For the same compound, the GI50 in test [6] was 3.33 µM; in test [8], 4.94 µM; in test [9], 3.86 µM. Further, the TGI in test [1] was greater than 100 µM; in test [2] it was 35.3 µM; in test [3], greater than 100 µM; in test [4], 5.2 µM; in [10], greater than 100 µM; in test [5], greater than 100 µM. Moreover, the TGI in test [6], in test [8] and in test [9] was greater than 100 µM in each case.
As for `O=C(C=Nc1ccccc1C(=O)[O-])c1cccs1.O=C(C=Nc1ccccc1C(=O)[O-])c1cccs1.[Co+2]`, the TGI in [1] is greater than 100 µM; in test [2], greater than 100 µM; in test [3], greater than 100 µM; in [4] it was greater than 100 µM; in [6], greater than 100 µM; in test [8] it was 95.1 µM. In [9], the TGI was greater than 100 µM.
In the case of `C=C(C)C1Cc2c(cc(OC)c3c(=O)c4cccc(O)c4oc23)O1` (stereo not drawn), the TGI in test [1] is 33.7 µM; in test [2] it was 42.4 µM; in test [3], greater than 100 µM; in test [4] it was 31.9 µM; in test [10], 35.9 µM; in test [5], greater than 100 µM. Besides, the TGI in test [6] is greater than 100 µM; in test [9] it was 59.5 µM.
With `O=C(O)C1=CCCc2ccc3ccccc3c21`, the TGI in [1], in test [2], in test [3], in [4], in test [10] and in test [6] was greater than 100 µM in each case. For the same compound, the TGI in test [7], in test [8] and in [9] was greater than 100 µM in each case.
With `CCN(CC)CCCn1cnc2ncccc2c1=O`, the TGI in test [1], in test [2], in test [3], in [4], in [10] and in test [8] was greater than 100 µM in each case. In test [9], this compound yielded a TGI greater than 100 µM.
As for `c1ccc2c(c1)sc1c3cnccc3ccc21`, the TGI in test [1], in test [2], in test [3], in test [4], in test [5] and in test [6] was greater than 100 µM in each case. The TGI in test [7], in [8] and in [9] was greater than 100 µM throughout.
Take `CC(=O)Oc1cc(C)c2c(c1OC(C)=O)CC1(O2)[C@@H](C)CCC2[C@@]3(C)CC[C@H](OC(C)=O)C(C)(C)C3CC[C@]21C` (stereo partly drawn): the TGI was 25.5 µM in [1]; 19.6 µM in test [3]; 5.26 µM in test [4]; 2.84 µM in test [10]; 13 µM in test [6]; greater than 100 µM in test [7]. In addition, the values for the TGI in test [8] and in test [9] were 8.41 µM and 11.5 µM, respectively.
Turning to `C/C(=N\NC(N)=S)c1cc(C)c(C)cc1C`, the TGI was greater than 100 µM in test [1]; greater than 100 µM in test [2]; 47.6 µM in test [3]; greater than 100 µM in test [4]; 97.2 µM in test [10]; greater than 100 µM in [6]. The TGI was greater than 100 µM in test [7], 60.3 µM in test [8] and greater than 100 µM in [9].
Consider `O=C(CCC(=O)Nc1cccc(Cl)c1)CC(=O)c1ccc(F)cc1`, for which the TGI in [1], in test [2], in test [3], in test [4], in test [6] and in test [7] was greater than 100 µM throughout. Also, the TGI in test [8] and in test [9] was greater than 100 µM throughout.
In the case of `[Cl][Sn]([Cl])([c]1ccccc1)[c]1ccccc1`, the GI50 in [1] is 17.4 µM; in [2] it was 4 µM; in [3], 16.1 µM; in [4], 2.87 µM; in [10], 2.79 µM; in [6], 10.3 µM. In addition, the GI50 is 2.71 µM in test [7], 13.4 µM in [8] and 10.4 µM in test [9]. The TGI in [1] worked out at 31.6 µM; in [2], 14.1 µM; in test [3], 30.5 µM; in [4] it was 9.08 µM; in test [6], 23.2 µM; in test [7], 18 µM. The TGI worked out at 26.2 µM in test [8] and 24 µM in [9].
On to `CSc1cccc(-n2c3nc(=O)n(C)c(=O)c-3nc3ccccc32)c1`, for which the TGI in test [1] came to 96 µM; in [2], 31.1 µM; in [3], 15.9 µM; in [4] it was 6.14 µM; in test [6], 23.3 µM; in [7] it was 26.2 µM. The TGI was found to be 6.17 µM in test [8] and 70.3 µM in [9].
